The values below come from US7739055B2, “Methods and systems for generating and evaluating peptides” (priority 2005, dated 2010).

Values after ≈ are worked out from the molar mass of the structure shown. Where two headings read alike, the source gives them in different places. Where a SMILES comes first, the peptide text is derived from it.

Test [1] has as its system Escherichia coli.
Test [2] concerns B. cereus.
The subject of test [3] is Smith Diffuse strain of Staphylococcus aureus. The conditions noted are these: Smith Diffuse strain; Table 1.
Where [4] appears, read: first concentration that prohibits growth by OD at 24 hours, Table 1.

On to `CC(C)C[C@H](NC(=O)[C@H](CC(C)C)NC(=O)[C@H](CO)NC(=O)[C@H](CCCCN)NC(=O)[C@H](CC(C)C)NC(=O)[C@@H]1CCCN1C(=O)[C@H](C)NC(=O)[C@H](Cc1ccccc1)NC(=O)[C@@H]1CCCN1C(=O)[C@H](CC(C)C)NC(=O)[C@@H](NC(=O)[C@H](CCCCN)NC(=O)[C@H](CCCCN)NC(=O)[C@@H](NC(=O)[C@H](CO)NC(=O)[C@@H](N)C(C)C)C(C)C)C(C)C)C(=O)N[C@@H](CO)C(=O)N[C@@H](Cc1ccccc1)C(=O)N[C@@H](C)C(=O)N[C@@H](Cc1ccccc1)C(=O)O` [Shuffled 63] (H-VSVKKVLPFAPLKSLLSFAF-OH; N-terminus and C-terminus assumed), for which the “MIC E. coli” value in test [1] (24 h) stood at 256 µg/mL (≈ 117 µM). In addition, in test [2] (24 h), the “MIC B. cereus” value is 256 µg/mL (≈ 117 µM). The “MIC S. aureus” value in test [3] is listed as “+ (MIC greater than 256 ug/mL)”.
For KYGPALVIAVKKSCSLTFRA [Shuffled 23], the “MIC E. coli” value in test [1] (setting [4]) is on record as “+ (MIC greater than 256 ug/mL)”. Further, the “MIC B. cereus” value in test [2] (setting [4]) is recorded as “+ (MIC greater than 256 ug/mL)”.
For PVVFSVASKVVPSLISALKR [Peptide 25], in test [1] (setting [4]), the “MIC E. coli” value was “+ (MIC greater than 256 ug/mL)”. In addition, the “MIC B. cereus” value in test [2] was “+ (key: +: MIC greater than 256 ug/mL; ++: MIC greater than 128 ug/mL, not sufficiently soluble to test as 256 ug/mL)”.
In the case of `CC[C@H](C)[C@H](NC(=O)[C@H](CC(C)C)NC(=O)CNC(=O)[C@@H](NC(=O)[C@@H](NC(=O)[C@H](C)NC(=O)[C@@H]1CCCN1C(=O)[C@@H](NC(=O)[C@@H](NC(=O)[C@H](CCCCN)NC(=O)[C@H](CO)NC(=O)[C@H](C)NC(=O)[C@H](CC(C)C)NC(=O)[C@H](CO)NC(=O)[C@H](Cc1ccccc1)NC(=O)[C@H](CC(C)C)NC(=O)[C@H](C)NC(=O)CN)C(C)C)C(C)C)C(C)C)[C@@H](C)CC)C(=O)N[C@@H](CCCCN)C(=O)N[C@@H](CCCCN)C(=O)O` [Peptide 96] (H-GALFSLASKVVPAVIGLIKK-OH; N-terminus and C-terminus assumed), the “MIC E. coli” value in test [1] (setting [4]) is given as “+ (MIC greater than 256 ug/mL)”. The “MIC B. cereus” value in test [2] (24 h) amounted to 256 µg/mL (≈ 127 µM).
Consider FLPFVGRIASKVVPSVIGKV [Peptide 75], for which, in test [1] (setting [4]), the “MIC E. coli” value is reported as “+ (MIC greater than 256 ug/mL)”. Further, the “MIC B. cereus” value in test [2] (setting [4]) is “+ (MIC greater than 256 ug/mL)”.
As to ALFSLASKVVPSVFSMVTKK [Peptide 1], the “MIC E. coli” value in test [1] (setting [4]) is “+ (MIC greater than 256 ug/mL)”. Further, in test [2] (setting [4]), the “MIC B. cereus” value is “+ (MIC greater than 256 ug/mL)”.
With `CC[C@H](C)[C@H](NC(=O)[C@H](CCCCN)NC(=O)[C@H](Cc1ccccc1)NC(=O)[C@@H](NC(=O)[C@H](C)NC(=O)[C@@H]1CCCN1)C(C)C)C(=O)N[C@@H](C)C(=O)N[C@@H](CO)C(=O)N[C@@H](CCCCN)C(=O)N[C@H](C(=O)N[C@H](C(=O)N1CCC[C@H]1C(=O)N[C@@H](CO)C(=O)N[C@H](C(=O)N[C@@H](Cc1ccc(O)cc1)C(=O)N[C@@H](CS)C(=O)N[C@@H](CCCCN)C(=O)N[C@H](C(=O)N[C@@H](CO)C(=O)N[C@@H](CCCNC(=N)N)C(=O)O)C(C)C)C(C)C)C(C)C)C(C)C` [Peptide 29] (H-PAVFKIASKVVPSVYCKVSR-OH; N-terminus and C-terminus assumed), the “MIC E. coli” value in test [1] (24 h) is 128 µg/mL (≈ 58.8 µM). The “MIC B. cereus” value in test [2] (setting [4]) was “+ (MIC greater than 256 ug/mL)”.
Take TAKVVVFVSFSYVVPKKRAC [Shuffled 2]: the “MIC E. coli” value in test [1] (setting [4]) was “+ (MIC greater than 256 ug/mL)”. Further, the “MIC B. cereus” value in test [2] (setting [4]) is listed as “+ (MIC greater than 256 ug/mL)”.
For the compound KIVKVITVKSISPASLVPVF [Shuffled 83], the “MIC E. coli” value in test [1] (setting [4]) was “++ (MIC greater than 128 ug/mL, not sufficiently soluble to test as 256 ug/mL)”. Further, the “MIC B. cereus” value in test [2] (setting [4]) is reported as “++ (MIC greater than 128 ug/mL, not sufficiently soluble to test as 256 ug/mL)”.
With PYSLKNGENWLLSEEIIRYP [Peptide 50], the “MIC E. coli” value in test [1] (setting [4]) is reported as “+ (MIC greater than 256 ug/mL)”. In test [2] (setting [4]), the “MIC B. cereus” value is listed as “+ (MIC greater than 256 ug/mL)”.
For SAVGSVASKVVPSLISKVTK [Peptide 36], the “MIC E. coli” value in test [1] (setting [4]) was “+ (MIC greater than 256 ug/mL)”. Also, the “MIC B. cereus” value in test [2] (setting [4]) is “+ (MIC greater than 256 ug/mL)”.
